Assay results from the NIST ThermoML archive (doi:10.1021/je500433d).
“And” between values parts separate entries of the source, which are not always exact repeats. Equal entries are not always repeated. Numbers after ± are expanded uncertainties.

Details: Liquid, Alternating current cell with electrodes

[Be+2].[Cl-].[Cl-] [beryllium chloride]
Details	electrical conductivity [S/m]
693.15 K	74.7 ± 5
695.15 K	80.5 ± 4.4
698.65 K	87.7 ± 5.1
701.65 K	96.1 ± 5.9
705.65 K	107 ± 7.6
711.65 K	132 ± 8.4
714.65 K	143 ± 8.7
719.65 K	165 ± 9.3
721.65 K	174 ± 9.4
724.65 K	186 ± 9.2
726.15 K	193 ± 12
728.15 K	202 ± 13
735.65 K	253 ± 15
738.15 K	270 ± 16
739.65 K	288 ± 17
741.65 K	297 ± 18
744.65 K	327 ± 20
746.15 K	335 ± 20
747.15 K	348 ± 19
750.15 K	376 ± 24
752.15 K	398 ± 23
755.15 K	437 ± 17
759.65 K	454 ± 19
761.15 K	488 ± 21
763.15 K	505 ± 29
765.15 K	531 ± 29
766.35 K	545 ± 32
767.35 K	572 ± 33
770.15 K	610 ± 26
772.85 K	636 ± 27
775.15 K	670 ± 33
777.65 K	707 ± 23
781.65 K	730 ± 32
783.65 K	763 ± 30
786.15 K	824 ± 41
787.15 K	836 ± 42
788.15 K	851 ± 40
790.15 K	887 ± 37
793.15 K	935 ± 34
795.15 K	954 ± 40
795.65 K	966 ± 41
797.15 K	1010 ± 41
801.65 K	1090 ± 37
807.65 K	1160 ± 37
809.65 K	1180 ± 38
822.65 K	1390 ± 42

[Cl][Pb][Cl] [lead(2+) dichloride]
Details	electrical conductivity [S/m]
783.15 K	150 ± 3.2
800.15 K	159 ± 3.3
824.15 K	170 ± 3.5
854.15 K	185 ± 3.8
883.15 K	197 ± 4
913.15 K	210 ± 4.3
943.15 K	221 ± 4.5
972.15 K	233 ± 4.7
1001.1 K	244 ± 4.9
1030.2 K	254 ± 5.1
1058.2 K	263 ± 5.3
1090.2 K	272 ± 5.5
1118.2 K	279 ± 5.6
1149.2 K	286 ± 5.7
1177.2 K	292 ± 5.8
1210.2 K	298 ± 6
1230.2 K	302 ± 6.1
1254.2 K	309 ± 6.2
1279.2 K	315 ± 6.3
1297.2 K	318 ± 6.4
1320.2 K	321 ± 6.4

[Cl-].[Cl-].[Zn+2] [zinc chloride]
Details	electrical conductivity
558.15 K	0.0363 ± 0.0042 S/m
568.15 K	0.0568 ± 0.0052 S/m
578.15 K	0.0874 ± 0.0076 S/m
588.15 K	0.131 ± 0.0095 S/m
598.15 K	0.179 ± 0.016 S/m
618.15 K	0.36 ± 0.03 S/m
638.15 K	0.646 ± 0.051 S/m
681.15 K	1.86 ± 0.09 S/m
717.15 K	3.93 ± 0.15 S/m
739.15 K	5.57 ± 0.2 S/m
756.65 K	7.13 S/m
814.65 K	14.4 ± 0.41 S/m
814.95 K	14.4 ± 0.41 S/m
858.65 K	21.9 ± 0.57 S/m
879.15 K	26.3 ± 0.66 S/m
893.15 K	28.8 ± 0.73 S/m
936.15 K	38.8 ± 0.91 S/m
970.15 K	47 ± 1.1 S/m
974.65 K	48.1 ± 1.1 S/m
981.15 K	49.8 ± 1.1 S/m
1005.1 K	55.4 ± 1.2 S/m
1030.2 K	61.4 ± 1.3 S/m
1062.2 K	69.2 ± 1.5 S/m
1078.2 K	73.5 S/m and 74.2 S/m
1092.2 K	76.8 ± 1.6 S/m
1100.2 K	79.2 ± 1.7 S/m
1110.2 K	81.2 ± 1.7 S/m
1114.2 K	82.8 ± 1.7 S/m
1128.2 K	85.7 ± 1.9 S/m
1131.2 K	87.1 ± 1.8 S/m
1143.2 K	89 ± 1.8 S/m
1144.7 K	90.3 ± 1.9 S/m
1163.2 K	93.5 ± 2.2 S/m
1167.2 K	95.9 ± 2.3 S/m
1183.7 K	100 ± 2.1 S/m
1195.7 K	103 ± 2.1 S/m
1214.2 K	107 ± 2.2 S/m
1225.2 K	110 ± 2.2 S/m
1236.2 K	113 ± 2.3 S/m
1245.7 K	115 ± 2.3 S/m
1259.7 K	118 ± 2.4 S/m
1279.7 K	122 ± 2.5 S/m
1297.2 K	126 ± 2.5 S/m
1306.2 K	127 ± 2.6 S/m
1316.7 K	129 ± 2.6 S/m
1324.2 K	131 ± 2.6 S/m
1341.7 K	134 ± 2.7 S/m
1350.2 K	135 ± 2.7 S/m
1359.7 K	137 ± 2.8 S/m
1376.7 K	139 ± 2.8 S/m
1386.7 K	141 ± 2.8 S/m
1399.2 K	142 ± 2.9 S/m
1406.2 K	143 ± 2.9 S/m
1414.2 K	144 ± 2.9 S/m
1421.2 K	145 ± 2.9 S/m
